# ChEMBL document CHEMBL1201862, “PubChem BioAssay data set” (2004)
#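 Dose response: 5 concentrations. Exposure: 48 h. Format: 96-well plates. Endpoint: linear interpolation; highest concentration if not reached. GI50 = concentration required for 50% inhibition of growth.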 Activity calls are given as the source filed them. Cut-off read from the data, not from the text of the source: active = GI50 up to about 1.1 µM and inactive = higher.
# Legend:
# Test in all cases: DTP human tumour cell line panel, 48 h
# SK-MEL-5 = test system: SK-MEL-5
# DU-145 = test system: DU-145
# NCI-H23 = test system: NCI-H23
# HCC 2998 = test system: HCC 2998
# Malme-3M = test system: Malme-3M
# NCI-H460 = test system: NCI-H460
# CAKI-1 = test system: CAKI-1
# SF-539 = test system: SF-539
# HL-60 = test system: HL-60
# Hs-578T = test system: Hs-578T
# ACHN = test system: ACHN
# T47D = test system: T47D
# CCRF-CEM = test system: CCRF-CEM
# SR = test system: SR
# HCT-15 = test system: HCT-15
# MDA-MB-231 = test system: MDA-MB-231
# MDA-N = test system: MDA-N
# RXF 393 = test system: RXF 393
# SN12C = test system: SN12C
Compound,GI50 (SK-MEL-5),GI50 (DU-145),GI50 (NCI-H23),GI50 (HCC 2998),GI50 (Malme-3M),GI50 (NCI-H460),GI50 (CAKI-1),GI50 (SF-539),GI50 (HL-60),GI50 (Hs-578T),GI50 (ACHN),GI50 (T47D),GI50 (CCRF-CEM),GI50 (SR),GI50 (HCT-15),GI50 (MDA-MB-231),GI50 (MDA-N),GI50 (RXF 393),GI50 (SN12C)
CCN(CC)Cc1ccc(C(=S)Nc2ccc(C)cc2)s1,13.4 µM (inactive),20.5 µM (inactive),8.09 µM (inactive),12.9 µM (inactive),16.5 µM (inactive),15.4 µM (inactive),15 µM (inactive),20.4 µM (inactive),9.66 µM (inactive),1.84 µM (inactive),16 µM (inactive),15.9 µM (inactive),8.83 µM (inactive),12.1 µM (inactive),16.4 µM,–,–,–,–
COc1ccc(-c2c(C#N)c(O)n(C3OC(CO)C(O)C(O)C3O)c(=S)c2C#N)cc1 (stereo unspecified),> 100 µM (inactive),> 100 µM (inactive),> 100 µM (inactive),> 100 µM (inactive),> 100 µM (inactive),> 100 µM (inactive),> 100 µM (inactive),> 100 µM (inactive),> 100 µM (inactive),–,> 100 µM (inactive),> 100 µM (inactive),> 100 µM (inactive),> 100 µM (inactive),> 100 µM,> 100 µM (inactive),> 100 µM (inactive),> 100 µM (inactive),> 100 µM (inactive)
C=C1[C@@H](OC(C)=O)[C@H]2[C@@H](OC(C)=O)[C@@](C)(OC(C)=O)C[C@]2(OC(C)=O)C(=O)[C@@H](C)/C=C/C(C)(C)C(=O)C[C@H]1OC(C)=O,> 100 µM (inactive),> 100 µM (inactive),> 100 µM (inactive),> 100 µM (inactive),> 100 µM (inactive),–,> 100 µM (inactive),> 100 µM (inactive),–,–,> 100 µM (inactive),> 100 µM (inactive),60.3 µM (inactive),–,> 100 µM,> 100 µM (inactive),> 100 µM (inactive),> 100 µM (inactive),> 100 µM (inactive)
COc1cc(NCCC(=O)O)c2ncccc2c1,> 100 µM (inactive),–,> 100 µM (inactive),–,> 100 µM (inactive),> 100 µM (inactive),–,–,> 100 µM (inactive),23.9 µM (inactive),> 100 µM (inactive),> 100 µM (inactive),> 100 µM (inactive),> 100 µM (inactive),> 100 µM,> 100 µM (inactive),> 100 µM (inactive),> 100 µM (inactive),> 100 µM (inactive)
COC(=O)/C=C(\C)CC/C=C(\C)CCC1OC1(C)C (stereo unspecified),11.4 µM (inactive),–,13.2 µM (inactive),9.66 µM (inactive),14.6 µM (inactive),13.2 µM (inactive),11.7 µM (inactive),13.5 µM (inactive),1.87 µM (inactive),16.1 µM (inactive),13 µM (inactive),–,4.65 µM (inactive),8.79 µM (inactive),11.8 µM,12.1 µM (inactive),11.7 µM (inactive),13.3 µM (inactive),10.2 µM (inactive)
O=[N+]([O-])c1cccc2c(/N=N/c3ccc4ccccc4c3O)c(O)cc(S(=O)(=O)O)c12,31 µM (inactive),–,33.3 µM (inactive),–,14.6 µM (inactive),–,2 µM (inactive),–,4.21 µM (inactive),> 100 µM (inactive),22.5 µM (inactive),–,3.05 µM (inactive),2.82 µM (inactive),14.1 µM,–,31.1 µM (inactive),38.4 µM (inactive),64.7 µM (inactive)
Nc1ncc(/C=N/O)c(NCC2(CO)CC(CCc3ccccc3)C2)n1 (stereo unspecified),0.0577 µM (active),5.41 µM (inactive),–,15.5 µM (inactive),12.1 µM (inactive),5.74 µM (inactive),18.4 µM (inactive),13.8 µM (inactive),2.2 µM (inactive),22.4 µM (inactive),–,0.0111 µM (active),14.7 µM (inactive),4.36 µM (inactive),13.1 µM,9.71 µM (inactive),–,12.1 µM (inactive),17 µM (inactive)
O=C1[C@@H]2C[C@@H](O)CN2C(=O)c2ccccc2N1CCCO,–,> 100 µM (inactive),–,–,–,> 100 µM (inactive),–,> 100 µM (inactive),–,> 100 µM (inactive),> 100 µM (inactive),> 100 µM (inactive),–,–,> 100 µM,> 100 µM (inactive),> 100 µM (inactive),–,> 100 µM (inactive)
Cc1ccc(/C=C2\NC(=S)N(CN3CCOCC3)C2=O)cc1,> 100 µM (inactive),> 100 µM (inactive),> 100 µM (inactive),–,> 100 µM (inactive),–,–,–,–,> 100 µM (inactive),> 100 µM (inactive),–,> 100 µM (inactive),> 100 µM (inactive),> 100 µM,> 100 µM (inactive),> 100 µM (inactive),–,> 100 µM (inactive)
